Values of other authors as cited in patent US20220401317A1, “HYPOCHLORITE COMPOSITION AND SYSTEM AND METHOD FOR PREPARING A HYPOCHLORITE COMPOSITION AND USE OF THE SAME” (KONINKLIJKE PHILIPS N.V., priority 2019, published 2022).

pKa: 7.53
SMILES: OCl [hypochloric acid]
